The results in this text go back to patent US20240376121A1, “COMPOUNDS AND USES THEREOF” (Foghorn Therapeutics Inc., priority 2021, published 2024).

One assay has as its target T1, HiBit-BRM fusion protein (Homo sapiens, UniProt P51531).
T1 construct: expressed in transfected cells
The assay can be described thus: HiBiT-BRM cell-based degradation assay (Nano-Glo HiBiT Lytic Detection). The conditions noted are these: stable HeLa cell line expressing HiBiT-BRM, 24 h incubation; for BRM HiBit Degradation Maximum (%): top dose 30 μM; for DC50: read-out: BRM HiBit Degradation IC50. Put shortly: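 HeLa cells stably expressing HiBiT-BRM were treated for 24 h with compounds (10-point 3-fold dilutions, 30 μM final top dose, in duplicate). HiBiT was detected by lytic LgBiT complementation luminescence. % degradation was normalized to DMSO (high control) and 2 μM of a reference BRM/BRG1 degrader (low control).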

For assay [1], the target named is T2, HiBit-BRG1 fusion protein (Homo sapiens, UniProt P51532).
T2 construct: expressed in transfected cells
T2 sequence (P51532 whole entry, the tested form may be a part): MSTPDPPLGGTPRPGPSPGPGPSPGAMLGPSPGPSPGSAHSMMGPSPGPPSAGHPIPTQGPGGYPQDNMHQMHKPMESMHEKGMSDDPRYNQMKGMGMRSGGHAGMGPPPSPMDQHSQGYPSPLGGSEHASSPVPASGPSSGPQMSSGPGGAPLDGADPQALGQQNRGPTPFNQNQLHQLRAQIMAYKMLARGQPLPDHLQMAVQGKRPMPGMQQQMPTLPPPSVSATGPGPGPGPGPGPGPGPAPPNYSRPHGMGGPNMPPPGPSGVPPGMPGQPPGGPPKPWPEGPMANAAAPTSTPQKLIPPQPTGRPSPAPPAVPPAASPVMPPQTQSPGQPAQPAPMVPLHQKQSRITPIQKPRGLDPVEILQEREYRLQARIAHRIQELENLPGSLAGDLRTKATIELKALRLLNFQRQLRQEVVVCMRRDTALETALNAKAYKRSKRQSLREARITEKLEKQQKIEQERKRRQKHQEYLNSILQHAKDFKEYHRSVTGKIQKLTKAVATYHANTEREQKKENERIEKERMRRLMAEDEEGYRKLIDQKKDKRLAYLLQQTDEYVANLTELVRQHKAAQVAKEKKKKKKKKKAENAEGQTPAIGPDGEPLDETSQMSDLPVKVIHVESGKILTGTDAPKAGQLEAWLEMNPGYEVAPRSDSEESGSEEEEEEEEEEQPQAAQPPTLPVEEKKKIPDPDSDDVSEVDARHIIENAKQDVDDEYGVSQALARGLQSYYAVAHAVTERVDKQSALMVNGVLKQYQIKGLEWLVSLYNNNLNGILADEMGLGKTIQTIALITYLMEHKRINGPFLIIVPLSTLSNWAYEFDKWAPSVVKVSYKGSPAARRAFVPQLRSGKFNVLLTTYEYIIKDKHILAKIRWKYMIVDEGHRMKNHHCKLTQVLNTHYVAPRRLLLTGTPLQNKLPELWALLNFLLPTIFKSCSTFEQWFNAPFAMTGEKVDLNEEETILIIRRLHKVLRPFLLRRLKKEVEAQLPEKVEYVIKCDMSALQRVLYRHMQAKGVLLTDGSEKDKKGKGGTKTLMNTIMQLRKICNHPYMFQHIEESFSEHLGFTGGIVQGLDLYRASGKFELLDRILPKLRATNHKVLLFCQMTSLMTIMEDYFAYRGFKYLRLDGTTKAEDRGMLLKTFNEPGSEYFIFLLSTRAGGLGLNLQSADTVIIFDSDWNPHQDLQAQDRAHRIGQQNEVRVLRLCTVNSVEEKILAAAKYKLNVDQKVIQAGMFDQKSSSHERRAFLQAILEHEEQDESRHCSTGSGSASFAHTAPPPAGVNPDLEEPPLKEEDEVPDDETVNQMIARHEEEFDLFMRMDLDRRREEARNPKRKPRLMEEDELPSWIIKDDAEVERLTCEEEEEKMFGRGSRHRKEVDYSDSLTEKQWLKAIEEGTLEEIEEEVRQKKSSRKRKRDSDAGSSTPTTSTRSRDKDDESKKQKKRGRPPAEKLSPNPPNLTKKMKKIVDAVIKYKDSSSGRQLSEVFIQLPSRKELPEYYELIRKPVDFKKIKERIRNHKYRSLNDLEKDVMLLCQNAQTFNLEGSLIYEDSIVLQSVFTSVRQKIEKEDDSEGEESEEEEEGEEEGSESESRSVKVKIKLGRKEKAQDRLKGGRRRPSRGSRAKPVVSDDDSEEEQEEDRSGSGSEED
The assay can be described thus: HiBiT-BRG1 cell-based degradation assay (Nano-Glo HiBiT Lytic Detection). The conditions noted are these: stable HeLa cell line expressing HiBit-BRG1 and LgBit, 24 h incubation; for Dmax: top dose 30 μM, read-out: BRG1 HiBit Degradation Maximum (%); for DC50: read-out: BRMG1 HiBit Degradation IC50. Put shortly: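 HeLa cells stably expressing HiBiT-BRG1 and LgBiT treated 24 h with 10-point 3-fold dilutions (top 30 μM, duplicate). Luminescence read after Nano-Glo HiBiT lytic reagent; % degradation relative to DMSO (high control) and 2 μM reference BRM/BRG1 degrader (low control).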

A value given as a limit tells only on which side of the number the result lay.

T1 sequence (P51531 whole entry, the tested form may be a part): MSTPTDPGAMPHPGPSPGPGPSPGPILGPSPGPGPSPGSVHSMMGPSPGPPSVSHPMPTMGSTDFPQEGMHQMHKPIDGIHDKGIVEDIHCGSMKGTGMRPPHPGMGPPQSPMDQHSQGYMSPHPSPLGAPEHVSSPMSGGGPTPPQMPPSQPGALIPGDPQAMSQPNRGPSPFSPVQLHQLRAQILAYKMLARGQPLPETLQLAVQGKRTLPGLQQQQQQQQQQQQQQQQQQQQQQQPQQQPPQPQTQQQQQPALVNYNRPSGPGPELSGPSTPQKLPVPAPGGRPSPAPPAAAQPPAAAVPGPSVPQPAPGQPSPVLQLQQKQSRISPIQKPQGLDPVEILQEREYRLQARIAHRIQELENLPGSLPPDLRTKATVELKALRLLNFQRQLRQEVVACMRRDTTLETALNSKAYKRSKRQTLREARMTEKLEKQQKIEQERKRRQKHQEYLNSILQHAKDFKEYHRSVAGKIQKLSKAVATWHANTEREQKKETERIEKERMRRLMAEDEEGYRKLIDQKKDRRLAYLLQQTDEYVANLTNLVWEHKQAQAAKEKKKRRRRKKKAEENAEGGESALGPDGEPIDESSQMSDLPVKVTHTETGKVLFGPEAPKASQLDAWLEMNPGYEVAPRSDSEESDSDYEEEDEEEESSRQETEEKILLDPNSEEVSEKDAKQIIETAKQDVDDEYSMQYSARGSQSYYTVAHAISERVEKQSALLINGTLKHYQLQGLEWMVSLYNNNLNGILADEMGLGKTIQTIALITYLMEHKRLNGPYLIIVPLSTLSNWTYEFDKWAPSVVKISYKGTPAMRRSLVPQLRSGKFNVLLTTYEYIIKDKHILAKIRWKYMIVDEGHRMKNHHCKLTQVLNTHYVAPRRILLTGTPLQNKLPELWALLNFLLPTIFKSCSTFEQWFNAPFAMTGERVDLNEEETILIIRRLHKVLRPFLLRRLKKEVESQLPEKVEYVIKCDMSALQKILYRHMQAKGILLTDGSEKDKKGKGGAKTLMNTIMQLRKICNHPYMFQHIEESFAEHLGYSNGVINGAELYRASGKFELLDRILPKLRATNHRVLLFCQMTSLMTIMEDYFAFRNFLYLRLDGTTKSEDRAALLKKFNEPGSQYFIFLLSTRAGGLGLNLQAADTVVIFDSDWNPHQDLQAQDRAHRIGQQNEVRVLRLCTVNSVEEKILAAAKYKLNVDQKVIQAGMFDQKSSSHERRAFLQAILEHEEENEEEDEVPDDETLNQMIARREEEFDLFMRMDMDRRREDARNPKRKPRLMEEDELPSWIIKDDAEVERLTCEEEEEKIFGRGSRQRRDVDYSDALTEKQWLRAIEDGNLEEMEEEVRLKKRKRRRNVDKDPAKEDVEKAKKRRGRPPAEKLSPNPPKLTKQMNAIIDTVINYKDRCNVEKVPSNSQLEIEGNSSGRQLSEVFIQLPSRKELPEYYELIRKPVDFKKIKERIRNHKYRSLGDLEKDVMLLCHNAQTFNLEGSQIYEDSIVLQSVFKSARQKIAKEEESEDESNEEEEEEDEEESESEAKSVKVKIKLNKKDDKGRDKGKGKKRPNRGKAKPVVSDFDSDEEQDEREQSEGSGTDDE

As to `Cc1ncsc1-c1ccc([C@H](C)NC(=O)[C@@H]2C[C@@H](O)CN2C(=O)[C@@H](c2cc(OCCN3CCN(c4sc5nnc(-c6ccccc6O)cc5c4C)CC3)no2)C(C)C)cc1` [Compound 66, (2S,4R)-4-hydroxy-1-((R)-2-(3-(2-(4-(3-(2-hydroxyphenyl)-5-methylthieno[2,3-c]pyridazin-6-yl)piperazin-1-yl)ethoxy)isoxazol-5-yl)-3-methylbutanoyl)-N-((S)-1-(4-(4-methylthiazol-5-yl)phenyl)ethyl)pyrrolidine-2-carboxamide], at HiBit-BRM fusion protein, the “BRM HiBit Degradation Maximum (%)” value is reported as “A (“A” indicates maximum degradation ≥ 75%)” and the DC50 is under 0.01 µM. In assay [1], the Dmax was at least 75% and the DC50 is at least 0.01 µM.

As for `Cc1ncsc1-c1ccc([C@H](C)NC(=O)[C@@H]2C[C@@H](O)CN2C(=O)[C@@H](c2cc(OCCN3CC4CC3CC4c3cc4cc(-c5ccccc5O)nnc4s3)no2)C(C)C)cc1` (stereo partly drawn) [Compound 67, (2S,4R)-4-hydroxy-1-((2R)-2-(3-(2-(5-(3-(2-hydroxyphenyl)thieno[2,3-c]pyridazin-6-yl)-2-azabicyclo[2.2.1]heptan-2-yl)ethoxy)isoxazol-5-yl)-3-methylbutanoyl)-N-((S)-1-(4-(4-methylthiazol-5-yl)phenyl)ethyl)pyrrolidine-2-carboxamide], on HiBit-BRM fusion protein, the “BRM HiBit Degradation Maximum (%)” value is reported as “A (“A” indicates maximum degradation ≥ 75%)” and the DC50 is at least 0.1 µM. In assay [1], the Dmax was under 50% and the DC50 is at least 1 µM.

On to `Cc1ncsc1-c1ccc([C@H](C)NC(=O)[C@@H]2C[C@@H](O)CN2C(=O)[C@@H](c2cc(OCCN3CCC(c4sc5nnc(-c6ccccc6O)cc5c4F)CC3)no2)C(C)C)cc1` [Compound 68, (2S,4R)-1-((R)-2-(3-(2-(4-(5-fluoro-3-(2-hydroxyphenyl)thieno[2,3-c]pyridazin-6-yl)piperidin-1-yl)ethoxy)isoxazol-5-yl)-3-methylbutanoyl)-4-hydroxy-N-((S)-1-(4-(4-methylthiazol-5-yl)phenyl)ethyl)pyrrolidine-2-carboxamide], for which, at HiBit-BRM fusion protein, the “BRM HiBit Degradation Maximum (%)” value is “B (“B” indicates maximum degradation ≥ 50%)” and the DC50 is at least 0.1 µM. Further, in assay [1], the Dmax is under 50% and the DC50 is at least 1 µM.

Regarding `Cc1ncsc1-c1ccc([C@H](C)NC(=O)[C@@H]2C[C@@H](O)CN2C(=O)[C@@H](c2cc(OCCCN3CCc4sc5nnc(-c6ccccc6O)cc5c4C3)no2)C(C)C)cc1` [Compound 69, (2S,4R)-4-hydroxy-1-((R)-2-(3-(3-(3-(2-hydroxyphenyl)-7,8-dihydropyrido[3′,4′:4,5]thieno[2,3-c]pyridazin-6(5H)-yl)propoxy)isoxazol-5-yl)-3-methylbutanoyl)-N-((S)-1-(4-(4-methylthiazol-5-yl)phenyl)ethyl)pyrrolidine-2-carboxamide], on HiBit-BRM fusion protein, the “BRM HiBit Degradation Maximum (%)” value is recorded as “C (“C” indicates maximum degradation < 50%)” and the DC50 is at least 1 µM. Further, in assay [1], the Dmax is under 50% and the DC50 is at least 1 µM.

Regarding `Cc1ncsc1-c1ccc([C@H](C)NC(=O)[C@@H]2C[C@@H](O)CN2C(=O)[C@@H](c2cc(N3CCC(N4CCc5sc6nnc(-c7ccccc7O)cc6c5C4)CC3)no2)C(C)C)cc1` [Compound 70, (2S,4R)-4-hydroxy-1-((R)-2-(3-(4-(3-(2-hydroxyphenyl)-7,8-dihydropyrido[3′,4′:4,5]thieno[2,3-c]pyridazin-6(5H)-yl)piperidin-1-yl)isoxazol-5-yl)-3-methylbutanoyl)-N-((S)-1-(4-(4-methylthiazol-5-yl)phenyl)ethyl)pyrrolidine-2-carboxamide], at HiBit-BRM fusion protein, the “BRM HiBit Degradation Maximum (%)” value is “C (“C” indicates maximum degradation < 50%)” and the DC50 is at least 1 µM. Moreover, in assay [1], the Dmax was under 50% and the DC50 is at least 1 µM.

Turning to `Cc1ncsc1-c1ccc([C@H](C)NC(=O)[C@@H]2C[C@@H](O)CN2C(=O)[C@@H](c2cc(OCCN3C[C@H]4C[C@@H](C3)[C@@H]4c3cc4cc(-c5ccccc5O)nnc4s3)no2)C(C)C)cc1` [Compound 71, (2S,4R)-4-hydroxy-N-[(1S)-1-[4-(4-methyl-1,3-thiazol-5-yl)phenyl]ethyl]-1-[(2R)-3-methyl-2-(3-{2-[(1R,5S,6r)-6-[3-(2-hydroxyphenyl)thieno[2,3-c]pyridazin-6-yl]-3-azabicyclo[3.1.1]heptan-3-yl]ethoxy}-1,2-oxazol-5-yl)butanoyl]pyrrolidine-2-carboxamide], on HiBit-BRM fusion protein, the “BRM HiBit Degradation Maximum (%)” value was “A (“A” indicates maximum degradation ≥ 75%)” and the DC50 was at least 0.01 µM. Besides, in assay [1], the Dmax was under 50% and the DC50 is at least 1 µM.

Take `Cc1ncsc1-c1ccc([C@H](C)NC(=O)[C@@H]2C[C@@H](O)CN2C(=O)[C@@H](c2cc(C34CC(CN5CCC(c6sc7nnc(-c8ccccc8O)cc7c6C)CC5)(C3)C4)no2)C(C)C)cc1` [Compound 72, (2S,4R)-4-hydroxy-1-[(2R)-2-{3-[3-({4-[3-(2-hydroxyphenyl)-5-methylthieno[2,3-c]pyridazin-6-yl]piperidin-1-yl}methyl)bicyclo[1.1.1]pentan-1-yl]-1,2-oxazol-5-yl}-3-methylbutanoyl]-N-[(1S)-1-[4-(4-methyl-1,3-thiazol-5-yl)phenyl]ethyl]pyrrolidine-2-carboxamide]: at HiBit-BRM fusion protein, the “BRM HiBit Degradation Maximum (%)” value was “A (“A” indicates maximum degradation ≥ 75%)” and the DC50 was under 0.01 µM. Moreover, in assay [1], the Dmax is at least 75% and the DC50 is at least 0.01 µM.

For `Cc1ncsc1-c1ccc([C@H](C)NC(=O)[C@@H]2C[C@@H](O)CN2C(=O)[C@@H](c2cc(OCCN3CCC(O)(c4cc5nnc(-c6ccccc6O)cc5s4)CC3)no2)C(C)C)cc1` [Compound 73, (2S,4R)-4-hydroxy-1-((R)-2-(3-(2-(4-hydroxy-4-(3-(2-hydroxyphenyl)thieno[3,2-c]pyridazin-6-yl)piperidin-1-yl)ethoxy)isoxazol-5-yl)-3-methylbutanoyl)-N-((S)-1-(4-(4-methylthiazol-5-yl)phenyl)ethyl)pyrrolidine-2-carboxamide], at HiBit-BRM fusion protein, the “BRM HiBit Degradation Maximum (%)” value was “A (“A” indicates maximum degradation ≥ 75%)” and the DC50 is at least 0.01 µM. Moreover, in assay [1], the Dmax was under 50% and the DC50 was at least 1 µM.

`Cc1ncsc1-c1ccc([C@H](C)NC(=O)[C@@H]2C[C@@H](O)CN2C(=O)[C@@H](c2cc(OCCN3C[C@H]4C[C@@H](C3)[C@H]4c3cc4cc(-c5ccccc5O)nnc4s3)no2)C(C)C)cc1` [Compound 74, (2S,4R)-4-hydroxy-1-((R)-2-(3-(2-((1R,5S,6S)-6-(3-(2-hydroxyphenyl)thieno[2,3-c]pyridazin-6-yl)-3-azabicyclo[3.1.1]heptan-3-yl)ethoxy)isoxazol-5-yl)-3-methylbutanoyl)-N-((S)-1-(4-(4-methylthiazol-5-yl)phenyl)ethyl)pyrrolidine-2-carboxamide]: on HiBit-BRM fusion protein, the “BRM HiBit Degradation Maximum (%)” value is listed as “C (“C” indicates maximum degradation < 50%)” and the DC50 is at least 1 µM. Besides, in assay [1], the Dmax was under 50% and the DC50 is at least 1 µM.

Consider `Cc1ncsc1-c1ccc(CNC(=O)[C@@H]2C[C@@H](O)CN2C(=O)[C@@H](NC(=O)C2(F)CC2)C(C)(C)C)c(OCC(=O)N2CCC(c3cc4nnc(-c5ccccc5O)cc4s3)CC2)c1` [Compound 75, (2S,4R)-1-((S)-2-(1-fluorocyclopropane-1-carboxamido)-3,3-dimethylbutanoyl)-4-hydroxy-N-(2-(2-(4-(3-(2-hydroxyphenyl)thieno[3,2-c]pyridazin-6-yl)piperidin-1-yl)-2-oxoethoxy)-4-(4-methylthiazol-5-yl)benzyl)pyrrolidine-2-carboxamide], for which, at HiBit-BRM fusion protein, the “BRM HiBit Degradation Maximum (%)” value is “C (“C” indicates maximum degradation < 50%)” and the DC50 was at least 1 µM. Also, in assay [1], the Dmax is under 50% and the DC50 was at least 1 µM.

Consider `Cc1ncsc1-c1ccc(CNC(=O)[C@@H]2C[C@@H](O)CN2C(=O)[C@@H](NC(=O)C2(F)CC2)C(C)(C)C)c(OCCCN2CCC(c3cc4nnc(-c5ccccc5O)cc4s3)CC2)c1` [Compound 76, (2S,4R)-1-((S)-2-(1-fluorocyclopropane-1-carboxamido)-3,3-dimethylbutanoyl)-4-hydroxy-N-(2-(3-(4-(3-(2-hydroxyphenyl)thieno[3,2-c]pyridazin-6-yl)piperidin-1-yl)propoxy)-4-(4-methylthiazol-5-yl)benzyl)pyrrolidine-2-carboxamide], for which, at HiBit-BRM fusion protein, the “BRM HiBit Degradation Maximum (%)” value is on record as “B (“B” indicates maximum degradation ≥ 50%)” and the DC50 was at least 0.01 µM. In addition, in assay [1], the Dmax was under 50% and the DC50 was at least 0.1 µM.

Regarding `Cc1ncsc1-c1ccc(CNC(=O)[C@@H]2C[C@@H](O)CN2C(=O)[C@@H](NC(=O)C2(F)CC2)C(C)(C)C)c(OCCN2CCC(c3cc4nnc(-c5ccccc5O)cc4s3)CC2)c1` [Compound 77, (2S,4R)-1-((S)-2-(1-fluorocyclopropane-1-carboxamido)-3,3-dimethylbutanoyl)-4-hydroxy-N-(2-(2-(4-(3-(2-hydroxyphenyl)thieno[3,2-c]pyridazin-6-yl)piperidin-1-yl)ethoxy)-4-(4-methylthiazol-5-yl)benzyl)pyrrolidine-2-carboxamide], at HiBit-BRM fusion protein, the “BRM HiBit Degradation Maximum (%)” value is “C (“C” indicates maximum degradation < 50%)” and the DC50 is at least 1 µM. In assay [1], the Dmax is under 50% and the DC50 is at least 1 µM.
